For data set [1], the system named is Leishmania donovani. Kind of data set: Antileishmanial activity against amastigotes of Leishmania donovani at 10 ug/ml. The class given is functional, organism-based.
The subject of data set [2] is Leishmania donovani. The experiment in a line: Antileishmanial activity against promastigotes of Leishmania donovani at 10 ug/ml. Format: functional.
Data set [3] is described as follows: (§1) Selectivity index, ratio of CC50 for mouse J774A1 cells to IC50 for amastigotes of Leishmania donovani. The class given is functional, J774.A1.
Data set [4] has as its system Leishmania donovani. Kind of data set: Antileishmanial activity against amastigotes of Leishmania donovani. The class given is functional, organism-based.
Data set [5] in a line: Cytotoxicity against mouse J774A1 cells by MTT assay. The class given is cell-based, J774.A1. On the technique in general: Tetrazolium assays rely on reduction of a dye to a coloured formazan, in cell work by metabolically active cells.
Data set [6] concerns Leishmania donovani. Kind of data set: Antileishmanial activity against Leishmania donovani infected in Hamster assessed as inhibition of parasites growth at 50 mg/kg, ip for 5 times. The class given is functional. The settings on record: for inhibition in vivo at 50 mg/kg: route intraperitoneal.
The test system of data set [7] is J774.A1. The description is as §1. The class given is functional.

The values below come from ChEMBL document CHEMBL1681663, “Design and synthesis of novel tetrahydronaphthyl azoles and related cyclohexyl azoles as antileishmanial agents” (Bioorg Med Chem Lett, 2011).

≈ marks a conversion by molar mass, not a printed value. Calls of active or inactive are those of the source. No cut-off for these calls is given here. A value given as a limit tells only on which side of the number the result lay.

Usually inhibition stands for the drop in the measured response relative to a control, in per cent. A word on the IC50: it is the concentration at which inhibition is half-maximal. Low readings indicate greater potency in that assay, high ones weaker potency in that assay. What is called CC50 is the concentration that lowers cell viability or growth by half. Higher therefore signals better tolerance by the cells. In general, inhibition in vivo refers to how much of the control response was suppressed.

Regarding `FC(F)(F)c1ccc(O[C@H]2CCCC[C@@H]2n2ccnc2)cc1` (racemic), in data set [1], the inhibition entry was “inactive”. In addition, the inhibition at 10 µg/mL in data set [2] was found to be 99.8%.

Take `Clc1ccc(CO[C@H]2CCCC[C@@H]2n2ccnc2)c(Cl)c1` (racemic): the “Ratio CC50/IC50” value in data set [3] was found to be 1.41. The molecule further displayed an IC50 in data set [4] of 2.44 µg/mL (≈ 7.5 µM). Further, the inhibition at 10 µg/mL in data set [2] was 99.5%. Besides, half-maximal cytotoxicity in data set [5] (CC50) was put at 3.43 µg/mL (≈ 10.5 µM).

Take `Clc1cccc(CO[C@H]2CCCC[C@@H]2n2ccnc2)c1` (racemic): the “Ratio CC50/IC50” value in data set [3] is listed as 9.1. The molecule further yielded a half-inhibitory concentration (IC50) in data set [4] of 1.4 µg/mL (≈ 4.83 µM). The inhibition at 10 µg/mL in data set [2] came to 96.9%. Moreover, the midpoint of cytotoxicity in data set [5], the CC50, lay at 12.8 µg/mL (≈ 43.9 µM).

As to `O=[N+]([O-])c1ccc(O[C@H]2CCCC[C@@H]2n2ccnc2)c(F)c1` (racemic), the “Ratio CC50/IC50” value in data set [3] stood at 6.62. In addition, the midpoint of inhibition in data set [4], the IC50, lay at 2.15 µg/mL (≈ 7.04 µM). In data set [2], the inhibition at 10 µg/mL worked out at 95.7%. Also, it took 14.2 µg/mL (≈ 46.7 µM) to reach half-maximal cytotoxicity in data set [5] (CC50).

As to `O=[N+]([O-])c1ccc(O[C@H]2CCc3ccccc3[C@@H]2n2ccnn2)c(F)c1` (racemic), the inhibition result in data set [1] is “inactive”. Further, the inhibition at 10 µg/mL in data set [2] was determined as 100%. The CC50 in data set [5] was over 100 µg/mL.

`NC[C@@H]1O[C@H](O[C@H]2[C@@H](O)[C@H](O[C@@H]3[C@@H](O)[C@H](N)C[C@H](N)[C@H]3O[C@H]3O[C@H](CO)[C@@H](O)[C@H](O)[C@H]3N)O[C@@H]2CO)[C@H](N)[C@@H](O)[C@@H]1O` [PAROMOMYCIN]: the “Ratio CC50/IC50” value in data set [3] stood at 2.15. Besides, the concentration for half-maximal inhibition (IC50) in data set [4] amounted to 24.8 µg/mL (≈ 40.3 µM). The inhibition in vivo at 50 mg/kg in data set [6] came out at 46.7%. The inhibition at 10 µg/mL in data set [2] was 124%. Besides, the CC50 in data set [5] is 53.3 µg/mL (≈ 86.6 µM).

For `O=[N+]([O-])c1ccc(O[C@H]2CCc3ccccc3[C@@H]2n2ccnc2)c(F)c1` (racemic), the “Ratio CC50/IC50” value in data set [3] is 4.92. The molecule also returned an IC50 in data set [4] of 6.52 µg/mL (≈ 18.5 µM). For the same molecule, the inhibition at 10 µg/mL in data set [2] stood at 100%. Besides, in data set [5], the cytotoxic concentration (CC50) amounted to 32.1 µg/mL (≈ 90.9 µM).

For the molecule `O[C@H]1CCc2ccccc2[C@@H]1n1ccnn1` (racemic), in data set [1], the inhibition result was “inactive”. In addition, the inhibition at 10 µg/mL in data set [2] was found to be 90.4%. Besides, half-maximal cytotoxicity in data set [5] (CC50) was put at 35.6 µg/mL (≈ 165 µM).

As for `O[C@H]1CCc2ccccc2[C@@H]1n1ccnc1` (racemic), in data set [3], the “Ratio CC50/IC50” value was found to be 2. This molecule had an IC50 in data set [4] of over 50 µg/mL. The inhibition at 10 µg/mL in data set [2] was determined as 60%. For the same molecule, the half-maximal cytotoxic concentration (CC50) in data set [5] was over 100 µg/mL.

`O=[N+]([O-])c1ccc(O[C@H]2CCc3ccccc3[C@@H]2n2ccnc2)c(C(F)(F)F)c1` (racemic): the “Ratio CC50/IC50” value in data set [3] is 6.73. In data set [4], this molecule displayed an IC50 of 1.59 µg/mL (≈ 3.94 µM). Also, the inhibition at 10 µg/mL in data set [2] is 91.2%. Further, in data set [5], the midpoint of cytotoxicity, the CC50, lay at 10.7 µg/mL (≈ 26.5 µM).

`Clc1ccc(Cl)c(CO[C@H]2CCc3ccccc3[C@@H]2n2ccnc2)c1` (racemic): in data set [3], the “Ratio CC50/IC50” value was determined as 34.78. Besides, half-maximal inhibition in data set [4] (IC50) was put at 0.64 µg/mL (≈ 1.71 µM). The inhibition in vivo at 50 mg/kg in data set [6] came to 83.3%. In data set [2], the inhibition at 10 µg/mL was 100%. In data set [5], the CC50 came out at 22.3 µg/mL (≈ 59.6 µM).

Regarding `Clc1ccc(Cl)c(CO[C@H]2CCCC[C@@H]2n2ccnc2)c1` (racemic), the “Ratio CC50/IC50” value in data set [3] worked out at 6.73. This molecule also returned a half-maximal inhibitory concentration (IC50) in data set [4] of 4.03 µg/mL (≈ 12.4 µM). Moreover, the inhibition at 10 µg/mL in data set [2] worked out at 89.6%. This molecule displayed a CC50 in data set [5] of 27.2 µg/mL (≈ 83.5 µM).

Consider sodium stibogluconate, for which, in data set [7], the Ratio CC50/IC50 was found to be 6.38. Moreover, the inhibition in data set [6] turned out to be 92.2%.

Consider `Clc1cccc(CO[C@H]2CCc3ccccc3[C@@H]2n2ccnn2)c1` (racemic), for which, in data set [3], the “Ratio CC50/IC50” value was 10.03. The IC50 in data set [4] stood at 3.01 µg/mL (≈ 8.86 µM). Further, the inhibition at 10 µg/mL in data set [2] came to 100%. Half-maximal cytotoxicity in data set [5] (CC50) was put at 30.2 µg/mL (≈ 88.9 µM).

For `Clc1cccc(CO[C@H]2CCc3ccccc3[C@@H]2n2ccnc2)c1` (racemic), the “Ratio CC50/IC50” value in data set [3] stood at 11.53. Also, the half-inhibitory concentration (IC50) in data set [4] came out at 1.34 µg/mL (≈ 3.95 µM). In addition, in data set [6], the inhibition in vivo at 50 mg/kg amounted to 32.1%. Also, in data set [2], the inhibition at 10 µg/mL turned out to be 100%. The molecule also came in with a half-maximal cytotoxic concentration (CC50) in data set [5] of 15.5 µg/mL (≈ 45.6 µM).

In the case of `O=[N+]([O-])c1ccc(O[C@H]2CCc3ccccc3[C@@H]2n2ccnc2)cc1` (racemic), the “Ratio CC50/IC50” value in data set [3] came to 4.73. This molecule also gave a 50% inhibitory concentration (IC50) in data set [4] of 4.53 µg/mL (≈ 13.5 µM). Also, in data set [2], the inhibition at 10 µg/mL was 94.9%. Besides, the cytotoxic concentration (CC50) in data set [5] was found to be 21.4 µg/mL (≈ 63.9 µM).

As for `FC(F)(F)c1ccc(O[C@H]2CCc3ccccc3[C@@H]2n2ccnc2)cc1` (racemic), the inhibition entry in data set [1] is “inactive”. Further, the inhibition at 10 µg/mL in data set [2] amounted to 60%. In data set [5], this molecule registered a CC50 of 52.5 µg/mL (≈ 146 µM).

For the molecule `O=[N+]([O-])c1cc(C(F)(F)F)ccc1O[C@H]1CCCC[C@@H]1n1ccnc1` (racemic), in data set [3], the “Ratio CC50/IC50” value is reported as 4.36. The molecule also came in with a 50% inhibitory concentration (IC50) in data set [4] of 5.07 µg/mL (≈ 14.3 µM). The inhibition at 10 µg/mL in data set [2] came to 99%. Also, in data set [5], the CC50 was determined as 22.1 µg/mL (≈ 62.3 µM).

Consider `O=[N+]([O-])c1ccc(O[C@H]2CCc3ccccc3[C@@H]2n2ccnn2)cc1` (racemic), for which the inhibition entry in data set [1] was “inactive”. Besides, the inhibition at 10 µg/mL in data set [2] is 99.6%. Further, in data set [5], the CC50 is over 100 µg/mL.

Take `O=[N+]([O-])c1ccc(O[C@H]2CCCC[C@@H]2n2ccnc2)cc1` (racemic): the “Ratio CC50/IC50” value in data set [3] came out at 3.7. Besides, in data set [4], half-maximal inhibition (IC50) required 2.23 µg/mL (≈ 7.76 µM). Moreover, in data set [2], the inhibition at 10 µg/mL was 98.6%. The molecule further yielded a cytotoxic concentration (CC50) in data set [5] of 8.27 µg/mL (≈ 28.8 µM).

For `O=[N+]([O-])c1cc(C(F)(F)F)ccc1O[C@H]1CCc2ccccc2[C@@H]1n1ccnc1` (racemic), the “Ratio CC50/IC50” value in data set [3] was 5.61. 3.58 µg/mL (≈ 8.88 µM) corresponded to half-maximal inhibition in data set [4] (IC50). In data set [2], the inhibition at 10 µg/mL came out at 99.6%. In data set [5], this molecule displayed a CC50 of 20.1 µg/mL (≈ 49.8 µM).
